Several values for one entry are separate records, joined by “and”; a condition that tells them apart may be missing. Equal values may be shown once.
Experiment: xn = mol fraction of the nth substance listed

O=C(O)/C=C\C(=O)O + O
viscosity [mPa·s], 101.32 kPa
Conditions | x1 = 0.0171 | x1 = 0.03648 | x1 = 0.06231 | x1 = 0.0943 | x1 = 0.145
298.15 K | 1.092 | 1.349 | 1.775 | 2.459 | –
313.15 K | 0.792 | 0.968 | 1.255 | 1.702 | 2.54

O=[N+]([O-])[O-].[K+] + O
viscosity [mPa·s]
Conditions | x1 = 0.0009 | x1 = 0.0018 | x1 = 0.00893 | x1 = 0.0177 | x1 = 0.02 | x1 = 0.02631 | x1 = 0.03478 | x1 = 0.0431 | x1 = 0.05127
293.15 K, 101.3 kPa | 0.999 | 0.9967 | 0.9784 | 0.9678 | – | – | – | 0.9855 | 1.002
298.15 K, 101.3 kPa | – | 0.887 | 0.875 | – | – | – | 0.8802 | 0.8927 | 0.9095
303.15 K, 101.3 kPa | 0.7964 | 0.7957 | 0.7884 | 0.7866 | – | 0.791 | 0.8004 | 0.8138 | 0.8319
308.15 K, 101.3 kPa | 0.7193 | 0.7184 | 0.7156 | 0.7174 | – | 0.7235 | 0.7334 | – | 0.7636
318.15 K, 101.3 kPa | 0.5964 | 0.5967 | 0.5993 | 0.6038 | – | 0.6128 | – | 0.6376 | 0.6543
323.15 K, 101 kPa | – | – | – | – | 0.565 | – | – | – | –

OCC(F)(F)C(F)F + O
viscosity [mPa·s], 100 kPa
Conditions | x1 = 0.1237 | x1 = 0.2532 | x1 = 0.3747 | x1 = 0.5024 | x1 = 0.6133 | x1 = 0.7598 | x1 = 0.8707
298.15 K | 2.07 | 2.716 | 3.002 | 3.314 | 3.523 | 3.91 | 4.341
323.15 K | 1.032 | 1.34 | 1.478 | 1.59 | 1.678 | 1.807 | 1.961

[Na+].[OH-] + O
Conditions | viscosity
293.15 K, 101.33 kPa, x2 = 0.67 | 96.16 mPa·s
293.15 K, 101.33 kPa, x2 = 0.8 | 22.24 mPa·s
293.15 K, 101.33 kPa, x2 = 0.83 | 18.37 mPa·s
293.15 K, 101.33 kPa, x2 = 0.85 | 9.529 mPa·s
293.15 K, 101.33 kPa, x2 = 0.86 | 8.225 mPa·s
293.15 K, 101.33 kPa, x2 = 0.89 | 6.356 mPa·s
293.15 K, 101.33 kPa, x2 = 0.9 | 4.63 mPa·s
323.15 K, 101 kPa, x1 = 0.009 | 0.609 mPa·s
323.15 K, 101 kPa, x1 = 0.026 | 0.745 mPa·s
323.15 K, 101 kPa, x1 = 0.05 | 1.02 mPa·s
323.15 K, 101 kPa, x1 = 0.1 | 1.88 mPa·s and 3.28 mPa·s
323.15 K, 101 kPa, x1 = 0.18 | 5.04 mPa·s
323.15 K, 101 kPa, x1 = 0.22 | 7.88 mPa·s
323.15 K, 101 kPa, x1 = 0.3 | 10.9 mPa·s

[Li+].[O-][Cl+3]([O-])([O-])[O-] + O=S1(=O)CCCC1
101 kPa, x1 = 0.1
Conditions | viscosity
303.15 K | 28.58 mPa·s and 28.57 mPa·s
308.15 K | 24.56 mPa·s
313.15 K | 20.83 mPa·s
318.15 K | 18.28 mPa·s
323.15 K | 16.02 mPa·s

— the CheMixHub viscosity set
